The supplement of paper PMC3974653
Counter-ions that a name gives are not always drawn.

System: MTT (mouse pheochromocytoma)
Assay: IC50 of cell viability (ATP content)
Conditions: (24 or 48 h)
Procedure, shortened: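 Each well of a white 1536-well plate received 5 µl of MTT mouse pheochromocytoma cells at 200,000 cells/ml in DMEM containing 5% FBS and 1% horse serum. After overnight culture at 37°C, 5% CO2, cells were exposed for 24 or 48 hrs to 23 nl of library compound in DMSO, pinned at 8 final concentrations from 0.5 nM to 46 µM. CellTiter-Glo luminescence was read after 15 minutes, and IC50 was obtained from a four-parameter logistic fit of signals normalised to positive-control and DMSO wells.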

SMILES	IC50 of cell viability [µM]
CCC[C@]1(CCc2ccccc2)CC(O)=C([C@H](CC)c2cccc(N[S+](=O)([O-])c3ccc(C(F)(F)F)cn3)c2)C(=O)O1 [TIPRANAVIR]	> 46
COC1=C(OC)C=C(CNCC(O)COC2=CC=C3NC(=O)\C=C/C3=C2)C=C1 (stereo unspecified) [TOBORINONE]	> 46
Cc1c(C)c2c(c(C)c1OC(=O)c1cccnc1)CC[C@@](C)(CCC[C@H](C)CCC[C@H](C)CCCC(C)C)O2 [TOCOPHEROL NICOTINATE]	> 46
Cc1c(C)c2c(c(C)c1OC(=O)CCC(=O)O)CC[C@@](C)(CCC[C@H](C)CCC[C@H](C)CCCC(C)C)O2 [TOCOPHERYL SUCCINATE]	> 46
CC1=C(/C=C/C(C)=C/C=C/C(C)=C/C(=O)Oc2c(C)c(C)c3c(c2C)CC[C@@](C)(CCC[C@H](C)CCC[C@H](C)CCCC(C)C)O3)C(C)(C)CCC1 [TOCORETINATE]	> 46
CCC1\C(=N/N=C(C2=CC(=C(OC)C=C2)OC)\C3=C1C=C(OC)C(=C3)OC)C (stereo unspecified) [TOFISOPAM]	> 46
Cc1ccccc1OCC(O)CNCCOc1ccc(C(N)=O)cc1 (stereo unspecified) [TOLAMOLOLUM]	> 46
Cc1ccc([S+](=O)([O-])NC(=O)NN2CCCCCC2)cc1 [TOLAZAMIDE]	> 46
CCCCNC(=O)N[S+](=O)([O-])c1ccc(C)cc1 [TOLBUTAMIDE]	> 46
Cc1ccc(C(=O)c2cc(O)c(O)c([N+](=O)[O-])c2)cc1 [TOLCAPONE]	> 46
Cc1c(Cl)cccc1Nc1ccccc1C(=O)O [TOLFENAMIC ACID]	> 46
Cc1cccc(N(C)C(=S)Oc2ccc3c(c2)CCC3)c1 [TOLINDATE]	> 46
Cc1ccc(S(=O)(=O)NC(=O)NC2CCCC2)cc1 [TOLPENTAMIDUM]	> 46
Cc1ccc(C(=O)C(C)CN2CCCCC2)cc1.Cl (stereo unspecified) [TOLPERISONE HYDROCHLORIDE]	> 46
Cc1ccccc1C(=O)Nc1ccc(C(=O)N2CCCC(O)c3cc(Cl)ccc32)c(C)c1 (stereo unspecified) [TOLVAPTAN]	> 46
CC1CC[C@@]2(NC1)OC1CC3C4CC[C@@H]5CC(O)CC[C@@]5(C)C4CC[C@]3(C)C1C2C.Cl (stereo partly specified) [TOMATIDINE HYDROCHLORIDE]	> 46
CC1(C)OC2CO[C@]3(CO[S+](N)(=O)[O-])OC(C)(C)OC3C2O1 (stereo partly specified) [TOPIRAMATE]	> 46
Cc1ccc([S+](=O)([O-])NC(=O)NC(C)Cc2ccccc2)cc1 (stereo unspecified) [TOSIFENUM]	> 46
NC1CCN(c2nc3c(cc2F)c(=O)c(C(=O)O)cn3-c2ccc(F)cc2F)C1 (stereo unspecified) [TOSUFLOXACIN TOSILATE]	> 46
CCOC(=O)C(CCc1ccccc1)NC(C)C(=O)N1C(C(=O)O)CC2CCCCC21 (stereo unspecified) [TRANDOLAPRIL]	> 46
O=C(O)/C=C(/CC(=O)O)C(=O)O [TRANS-ACONITIC ACID]	> 46
[H][C@]1(\C=C(/Cl)Cl)[C@]([H])(C(=O)OCC2=C(F)C(F)=CC(F)=C2F)C1(C)C [TRANSFLUTHRIN]	> 46

SMILES	IC50 of cell viability [µM]
CC(=O)O[C@H]1CC[C@H]2[C@@H]3CCC4=CC(=O)CCC4=C3C=C[C@]12C [TRENBOLONE ACETATE]	> 46
C[S+](=O)([O-])OCC(O)C(O)CO[S+](C)(=O)[O-] (stereo unspecified) [TREOSULFAN]	> 46
CCOc1cc(OCC)c(C(=O)CCC(=O)O)cc1OCC [TREPIBUTONE]	> 46
CC1=C(/C=C/C(C)=C/C=C/C(C)=C/C(=O)O)C(C)(C)CCC1 [TRETINOIN]	> 46
C[C@@]12CC(O)[C@]3(F)C(CCC/4=C/C(=O)/C=C\[C@@]34C)C1CC(O)[C@@]2(O)C(=O)CO (stereo partly specified) [TRIAMCINOLONE]	> 46
CC1=NN=C2C\N=C(\C3=C(Cl)C=CC=C3)C4=C(C=CC(=C4)Cl)[N]12 [TRIAZOLAM]	> 46
O=C(Nc1ccc(Br)cc1)c1cc(Br)cc(Br)c1O [TRIBROMSALAN]	> 46
CCOC(=O)c1cccc(N)c1 [TRICAINE METHANESULFONATE]	> 46
O[C@H]1[C@H]2[C@H](O)CCCN2C[C@H]1O [TRIDOLGOSIRUM]	> 46
OCCOCCOCCO [TRIETHYLENE GLYCOL]	> 46
CC(CN(C)C)CN1c2ccccc2Sc2ccc(C(F)(F)F)cc21 (stereo unspecified) [TRIFLUOMEPRAZINE MALEATE]	> 46
CN(C)CCCN1c2ccccc2Sc2ccc(C(F)(F)F)cc21.Cl [TRIFLUPROMAZINE HYDROCHLORIDE]	> 46
Cl.OC(CCN1CCCCC1)(c1ccccc1)C1CCCCC1 (stereo unspecified) [TRIHEXYPHENIDYL HYDROCHLORIDE]	> 46
C[C@]12CC[C@H]3[C@@H](CC[C@@]45O[C@@H]4C(=O)C(C#N)C[C@]35C)[C@@H]1CC[C@@H]2O (stereo partly specified) [TRILOSTANE]	> 46
CCC(COC(=O)c1cc(OC)c(OC)c(OC)c1)(c1ccccc1)N(C)C.O=C(O)/C=C\C(=O)O (stereo unspecified) [TRIMEBUTINE MALEATE]	> 46
CC12CCC(C[N+](C)(CCC[N+](C)(C)C)C1)C2(C)C (stereo unspecified) [TRIMETHIDINII METHOSULFAS]	> 46
COc1cc(C(=O)N2CCOCC2)cc(OC)c1OC [TRIMETOZINUM]	> 46
FC(F)(F)c1ccccc1-n1ccnc1 [TRIM]	> 46
CN(C)CCN(Cc1ccccc1)c1ccccn1.O=C(O)CC(O)(CC(=O)O)C(=O)O [TRIPELENNAMINE CITRATE]	> 46
CC(C)C[C@H](NC(=O)[C@@H](Cc1c[nH]c2ccccc12)NC(=O)[C@@H](Cc1ccc(O)cc1)NC(=O)[C@@H](CO)NC(=O)[C@@H](Cc1c[nH]c2ccccc12)NC(=O)C(Cc1c[nH]cn1)NC(=O)C1CCC(=O)N1)C(=O)N[C@@H](CCCNC(=N)N)C(=O)N1CCC[C@@H]1C(=O)NCC(N)=O (stereo partly specified) [TRIPTORELIN PAMOATE]	> 46
COc1cc(C(=O)N2CCCCCCC2)cc(OC)c1OC [TROCIMINUM]	> 46
NC(CO)(CO)CO [TROMETHAMINE]	> 46

SMILES	IC50 of cell viability [µM]
Cc1cc(C)cc(C(=O)OC2CC3CCC(C2)N3C)c1 (stereo unspecified) [TROPANYL 3,5-DIMETHYLBENZOATE]	> 46
CCN(Cc1ccncc1)C(=O)C(CO)c1ccccc1 (stereo unspecified) [TROPICAMIDE]	> 46
CN1C2CCC1CC(OC(=O)c1c[nH]c3ccccc13)C2 (stereo unspecified) [TROPISETRON]	> 46
O=C(O[C@H]1C[C@H]2CC[C@@H](C1)[N+]21CCCC1)C(O)(c1ccccc1)c1ccccc1 [TROSPIUM CHLORIDE]	> 46
NC1C2CN(CC12)C3=NC4=C(C=C3F)C(=O)C(=C/N4C5=CC=C(F)C=C5F)\C(O)=O (stereo unspecified) [TROVAFLOXACIN MESYLATE]	> 46
NC/1=N/C(=O)N(/C=C1)[C@H]2CO[C@H](CO)O2 [TROXACITABINE (Troxatyl)]	> 46
CC1OC(OCC2OC(OC/3=C(/OC4=C(C(=CC(=C4)OCCO)O)C3=O)C5=CC=C(OCCO)C(=C5)OCCO)C(O)C(O)C2O)[C@@H](O)C(O)C1O (stereo partly specified) [TROXERUTIN]	> 46
COc1cc(C(=O)NC2CCCNC2)cc(OC)c1OC (stereo unspecified) [TROXIPIDE]	> 46
CCCCCC(C)N.O=[S+]([O-])(O)O (stereo unspecified) [TUAMINOHEPTANE SULFATE]	> 46
CC(C)(C)NCC(O)c1ccccc1Cl.Cl (stereo unspecified) [TULOBUTEROL]	> 46
CCC1OC(=O)CC(O)C(C)[C@@H](O[C@@H]2OC(C)[C@H](O[C@@H]3C[C@@](C)(O)C(O)C(C)O3)C(N(C)C)C2O)[C@H](CC=O)CC(C)C(=O)/C=C/C(C)=C/[C@@H]1COC1OC(C)C(O)C(OC)[C@@H]1OC (stereo partly specified) [TYLOSIN TARTRATE]	> 46
CCCC(=O)Nc1c(I)cc(I)c(C[C@H](CC)C(=O)O)c1I [TYROPANOATE SODIUM]	> 46
N[C@@H](Cc1ccc(O)cc1)C(=O)O [TYROSINE]	> 46
CC1(C)S[C@H]2[C@H](NC(=O)[C@@H](N)C3=CC=CC=C3)C(=O)[N@]2[C@H]1C(=O)O[C@@H]4OC(=O)C5=C4C=CC=C5 [Talampicillin hydrochloride]	> 46
O=C1[C@@H]2[C@H]3CC[C@H](C3)[C@@H]2C(=O)N1CCCCN1CCN(c2ncccn2)CC1 [Tandospirone]	> 46
COc1cc2c(N3CCN(C(=O)Nc4ccc(OC(C)C)cc4)CC3)ncnc2cc1OCCCN1CCCCC1 [Tandutinib]	> 46
O=C([O-])c1cccc(/C=C2/C[C@@H]3[C@@H](/C=C/[C@@H](O)C4CCCCC4)[C@H](O)C[C@@H]3O2)c1 [Taprostene sodium salt]	> 46
O=C([O-])C1=NN(c2ccc(S(=O)(=O)[O-])cc2)C(=O)/C1=N\Nc1ccc(S(=O)(=O)[O-])cc1 [Tartrazine]	> 46
CCCCOC(=O)C(=O)Nc1cccc(-c2nnn[nH]2)c1 [Tazanolast]	> 46
CC1(Cn2ccnn2)[C@H](C(=O)O)N2C(=O)C[C@H]2[S+]1(=O)[O-] (stereo partly specified) [Tazobactam sodium]	> 46
CC1CN(CCN1)C2=CC3=C(C=C2F)C(=O)\C(=C/N3C4=CC=C(F)C=C4F)C(O)=O (stereo unspecified) [Temafloxacin]	> 46
CN1C(=O)C(O)N=C(c2ccccc2)c2cc(Cl)ccc21 (stereo unspecified) [Temazepam]	> 46
